These results are taken from US11932658B2 (BRISTOL-MYERS SQUIBB COMPANY, priority 2016, dated 2024).

The target of this assay is T1, PAR4 (Homo sapiens, UniProt Q96RI0).
T1 construct: expressed in transfected cells; host or cells: HEK293 PAR4 Clone 1.2A (BMS Arctic ID 383940)
T1 sequence (Q96RI0 18-385): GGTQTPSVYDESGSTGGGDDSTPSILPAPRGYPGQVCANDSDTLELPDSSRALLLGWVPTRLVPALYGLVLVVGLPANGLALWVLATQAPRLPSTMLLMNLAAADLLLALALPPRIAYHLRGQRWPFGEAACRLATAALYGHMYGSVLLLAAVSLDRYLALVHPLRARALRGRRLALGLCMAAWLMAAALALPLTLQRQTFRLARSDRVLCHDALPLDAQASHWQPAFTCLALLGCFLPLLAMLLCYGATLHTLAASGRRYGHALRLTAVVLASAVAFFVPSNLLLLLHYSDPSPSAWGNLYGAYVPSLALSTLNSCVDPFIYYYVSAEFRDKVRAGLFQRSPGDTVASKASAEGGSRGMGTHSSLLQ
Kind of assay: PAR4 FLIPR assay (antagonism of agonist peptide-induced calcium mobilization). The assay is classed as cell-based. An outline of the steps:
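Antagonism was taken as block of calcium mobilization evoked by the agonist peptide H-Ala-Phe(4-F)-Pro-Gly-Trp-Leu-Val-Lys-Asn-[…]-NH2, added after 30 min room-temperature compound preincubation in dye-loaded PAR4-transfected HEK293 cells (endogenous PAR1). Fluorescence was read on FDSS, with compound addition alone used as the agonist counter-screen; values come from 11-point concentration-response curves.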
For `COc1ccc(NC(=O)OC[C@H]2COc3c(cc(C)c4nc(-c5cc(C)cc6nc(OC)cnc56)sc34)O2)cn1` (single isomer, unassigned) [Example 4], the half-maximal inhibitory concentration (IC50) (commonly the concentration needed to halve the response being measured) amounted to 0.8 nM.

For the compound `COc1cnc2c(-c3nc4cc(F)c5c(c4s3)C[C@@](C)(COP(=O)(O)O)O5)cc(C)cc2n1` [Example 237, (S)-(5-fluoro-2-(2-methoxy-7-methylquinoxalin-5-yl)-7-methyl-7,8-dihydrobenzofuro[5,4-d]thiazol-7-yl)methyl dihydrogen phosphate], the IC50 was found to be 40 nM.

On to `COc1cnc2c(-c3nc4cc(F)c5c(c4s3)C[C@@](C)(COC(=O)Nc3cnc(C)nc3)O5)cc(C)cc2n1` [Example 174, (S)-(5-fluoro-2-(2-methoxy-7-methylquinoxalin-5-yl)-7-methyl-7,8-dihydrobenzofuro[5,4-d]thiazol-7-yl)methyl (2-methylpyrimidin-5-yl)carbamate], for which the IC50 came to 30 nM.

Consider `COc1cnc2c(-c3nc4cc(F)c5c(c4s3)C(C)(C)[C@H](CO)O5)cc(C)cc2n1` (single isomer, unassigned) [Example 206], for which the IC50 was 370 nM.

In the case of `COc1cnc2c(-c3nc4c(C)cc5c(c4s3)OCC(COC(=O)Nc3ccc(N)nc3)O5)cc(C)cc2n1` (stereo not drawn) [Example 141, (2-(2-methoxy-7-methylquinoxalin-5-yl)-4-methyl-7,8-dihydro-[1,4]dioxino[2′,3′:3,4]benzo[1,2-d]thiazol-7-yl)methyl (6-aminopyridin-3-yl)carbamate], the 50% inhibitory concentration (IC50) stood at 170 nM.

`COc1cnc2c(-c3nc4cc(F)c5c(c4s3)C[C@H](COC(=O)Nc3ccc(C(=O)N4CCOCC4)cc3)O5)cc(C)cc2n1` [Example 169, (R)-(5-fluoro-2-(2-methoxy-7-methylquinoxalin-5-yl)-7,8-dihydrobenzofuro[5,4-d]thiazol-7-yl)methyl (4-(morpholine-4-carbonyl)phenyl)carbamate]: the IC50 came to 6.6 nM.

Consider `COc1cnc2c(-c3nc4cc(F)c5c(c4s3)C[C@@H](CNC(=O)OCC(C)C)O5)cc(C)cc2n1` [Example 246, (S)-isobutyl ((5-fluoro-2-(2-methoxy-7-methylquinoxalin-5-yl)-7,8-dihydrobenzofuro[5,4-d]thiazol-7-yl)methyl)carbamate], for which the 50% inhibitory concentration (IC50) came to 5 nM.

As for `COC(=O)NC[C@@H]1Cc2c(ccc3nc(-c4cc(C)cc5nc(OC)cnc45)sc23)O1` [Example 226, (S)-methyl ((2-(2-methoxy-7-methylquinoxalin-5-yl)-7,8-dihydrobenzofuro[5,4-d]thiazol-7-yl)methy 1)carbamate], the concentration for half-maximal inhibition (IC50) was 1.4 nM.

On to `COc1cnc2c(-c3nc4ccc5c(c4s3)C[C@@H](CNC(=O)OC(C)(C)C)O5)cc(C)cc2n1` [Example 244, (S)-tert-butyl ((2-(2-methoxy-7-methylquinoxalin-5-yl)-7,8-dihydrobenzofuro[5,4-d]thiazol-7-yl)methyl)carbamate], for which the half-inhibitory concentration (IC50) was determined as 100 nM.

Consider `CCOc1ccc(NC(=O)OCC2COc3c(cc(C)c4nc(-c5cc(C)cc6nc(OC)cnc56)sc34)O2)cn1` (stereo not drawn) [Example 133, (2-(2-methoxy-7-methylquinoxalin-5-yl)-4-methyl-7,8-dihydro-[1,4]dioxino[2′,3′:3,4]benzo[1,2-d]thiazol-7-yl)methyl (6-ethoxypyridin-3-yl)carbamate], for which the concentration for half-maximal inhibition (IC50) was 150 nM.

For the compound `COc1cnc2c(-c3nc4ccc5c(c4s3)CC(CNC(=O)OCC(C)C)O5)cc(C)cc2n1` (stereo not drawn) [Example 198, Isobutyl ((2-(2-methoxy-7-methylquinoxalin-5-yl)-7,8-dihydrobenzofuro[5,4-d]thiazol-7-yl)methy 1)carbamate], the IC50 is 3.1 nM.

For `COc1cnc2c(-c3nc4ccc5c(c4s3)CC(CNC(=O)Oc3ccccc3)O5)cc(C)cc2n1` (stereo not drawn) [Example 192, Phenyl ((2-(2-methoxy-7-methylquinoxalin-5-yl)-7,8-dihydrobenzofuro[5,4-d]thiazol-7-yl)methy 1)carbamate], the IC50 amounted to 8.3 nM.

`CCOc1cnc2c(-c3nc4cc(F)c5c(c4s3)[C@H](C)[C@@H](CO)O5)cc(C)cc2n1` [Example 259, ((7S,8S)-2-(2-ethoxy-7-methylquinoxalin-5-yl)-5-fluoro-8-methyl-7,8-dihydrobenzofuro[5,4-d]thiazol-7-yl)methanol]: the concentration for half-maximal inhibition (IC50) is 1.1 nM.

Take `COc1cnc2c(-c3cc4c5c(cc(Cl)c4o3)O[C@@H](COC(=O)Nc3cccnc3)CO5)cc(C)cc2n1` [Example 10, (R)-(6-chloro-8-(2-methoxy-7-methylquinoxalin-5-yl)-2,3-dihydro-[1,4]dioxino[2,3-e]benzofuran-3-yl)methyl pyridin-3-ylcarbamate]: the IC50 was 8.5 nM.

Regarding `COc1cnc2c(-c3nc4ccc5c(c4s3)C[C@@H](CNC(=O)OCC3CCOC3)O5)cc(C)cc2n1` (stereo partly drawn) [Example 229, (Tetrahydrofuran-3-yl)methyl (((S)-2-(2-methoxy-7-methylquinoxalin-5-yl)-7,8-dihydrobenzofuro[5,4-d]thiazol-7-yl)methyl)carbamate], the concentration for half-maximal inhibition (IC50) was found to be 20 nM.

As to `CCOC(=O)NC[C@@H]1Cc2c(c(F)cc3nc(-c4cc(C)cc5nc(OC)cnc45)sc23)O1` [Example 260, (S)-ethyl ((5-fluoro-2-(2-methoxy-7-methylquinoxalin-5-yl)-7,8-dihydrobenzofuro[5,4-d]thiazol-7-yl)methyl)carbamate], the IC50 was 1 nM.

On to `COC(=O)NCC1Cc2c(ccc3nc(-c4cc(C)cc5nc(OC)cnc45)sc23)O1` (stereo not drawn) [Example 191, Methyl ((2-(2-methoxy-7-methylquinoxalin-5-yl)-7,8-dihydrobenzofuro[5,4-d]thiazol-7-yl)methy 1)carbamate], for which the half-maximal inhibitory concentration (IC50) was determined as 7.1 nM.

In the case of `COc1cnc2c(-c3nc4c(C)cc5c(c4s3)OC[C@H](COC(=O)Nc3cccc(C#N)c3)O5)cc(C)cc2n1` [Example 46, (R)-(2-(2-methoxy-7-methylquinoxalin-5-yl)-4-methyl-7,8-dihydro-[1,4]dioxino[2′,3′:3,4]benzo[1,2-d]thiazol-7-yl)methyl (3-cyanophenyl)carbamate], the IC50 came out at 1 nM.

For the compound `COc1cnc2c(-c3nc4c(C)cc5c(c4s3)OCC(COC(=O)Nc3ccc(NC(C)=O)nc3)O5)cc(C)cc2n1` (stereo not drawn) [Example 140, (2-(2-methoxy-7-methylquinoxalin-5-yl)-4-methyl-7,8-dihydro-[1,4]dioxino[2′,3′:3,4]benzo[1,2-d]thiazol-7-yl)methyl (6-acetamidopyridin-3-yl)carbamate], the IC50 came to 230 nM.

Consider `COc1cnc2c(-c3nc4cc(F)c5c(c4s3)C[C@H](COC(=O)Nc3cnc(C)nc3)O5)cc(F)cc2c1` [Example 280, (R)-(5-fluoro-2-(6-fluoro-3-methoxyquinolin-8-yl)-7,8-dihydrobenzofuro[5,4-d]thiazol-7-yl)methyl (2-methylpyrimidin-5-yl)carbamate], for which the IC50 was 2.4 nM.

For `COc1cnc2c(-c3nc4c(F)cc5c(c4s3)OC[C@H](COC(=O)Nc3cccc(C#N)c3)O5)cc(C)cc2n1` [Example 72, (R)-(4-fluoro-2-(2-methoxy-7-methylquinoxalin-5-yl)-7,8-dihydro-[1,4]dioxino[2′,3′:3,4]benzo[1,2-d]thiazol-7-yl)methyl (3-cyanophenyl)carbamate], the half-inhibitory concentration (IC50) stood at 7.7 nM.

Consider `CNC(=O)c1ccc(NC(=O)OC[C@H]2Cc3c(c(F)cc4nc(-c5cc(C)cc6nc(OC)cnc56)sc34)O2)cc1` [Example 208, (R)-(5-fluoro-2-(2-methoxy-7-methylquinoxalin-5-yl)-7,8-dihydrobenzofuro[5,4-d]thiazo 1-7-yl)methyl (4-(methylcarbamoyl)phenyl)carbamate], for which the IC50 is 1.1 nM.

For the compound `COc1cnc2c(-c3nc4c(C)cc5c(c4s3)OCC(COC(=O)Nc3ccc(-n4cnc(C)n4)nc3)O5)cc(C)cc2n1` (stereo not drawn) [Example 130, (2-(2-methoxy-7-methylquinoxalin-5-yl)-4-methyl-7,8-dihydro-[1,4]dioxino[2′,3′:3,4]benzo[1,2-d]thiazol-7-yl)methyl (6-(3-methyl-1H-1,2,4-triazol-1-yl)pyridin-3-yl)carbamate], the IC50 was found to be 1.5 nM.

As for `COc1cnc2c(-c3nc4ccc5c(c4s3)OC[C@H](COC(=O)Nc3ccc(C(=O)N4CCOCC4)cc3)O5)cc(C)cc2n1` [Example 114, (R)-(2-(2-methoxy-7-methylquinoxalin-5-yl)-7,8-dihydro-[1,4]dioxino[2′,3′:3,4]benzo [1,2-d]thiazol-7-yl)methyl (4-(morpholine-4-carbonyl)phenyl)carbamate], the 50% inhibitory concentration (IC50) came to 1 nM.

`COc1cnc2c(-c3nc4cc(F)c5c(c4s3)C[C@H](CNC(=O)OCc3ccccc3)O5)cc(C)cc2n1` [Example 221, (R)-benzyl ((5-fluoro-2-(2-methoxy-7-methylquinoxalin-5-yl)-7,8-dihydrobenzofuro[5,4-d]thiazol-7-yl)methyl)carbamate]: the concentration for half-maximal inhibition (IC50) came out at 5.9 nM.

`COc1cnc2c(-c3nc4c(Cl)cc5c(c4s3)OC[C@H](COC(=O)Nc3ccc4scnc4c3)O5)cc(C)cc2n1` [Example 39, (R)-(4-chloro-2-(2-methoxy-7-methylquinoxalin-5-yl)-7,8-dihydro-[1,4]dioxino[2′,3′:3,4]benzo[1,2-d]thiazol-7-yl)methyl benzo[d]thiazol-5-ylcarbamate]: the 50% inhibitory concentration (IC50) is 18 nM.

With `COc1cnc2c(-c3nc4c(C)cc5c(c4s3)OC[C@H](COC(=O)Nc3cccnc3)O5)cc(C#N)cc2n1` [Example 93, (R)-(2-(7-cyano-2-methoxyquinoxalin-5-yl)-4-methyl-7,8-dihydro-[1,4]dioxino[2′,3′:3,4]benzo[1,2-d]thiazol-7-yl)methyl pyridin-3-ylcarbamate], the 50% inhibitory concentration (IC50) was 20 nM.
